Results: patent US20180311342A1, “IMMUNOSTIMULATING AGENT” (AJINOMOTO CO., INC., priority 2017, published 2018)

Test system: anti-OVA-specific IgG1 and IgG2a subclass antibody production
Assay: Evaluation test of adjuvant activity (overall conclusion from anti-OVA IgG1 and IgG2a production)
Assay type: in vivo, BALB/c mice
Conditions: compound 0.256 μmol in 5% αCD-added saline with OVA 5 μg, dorsal-subcutaneous
Outline: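 Female BALB/c mice (8 weeks, N=6) immunized dorsal-subcutaneously with OVA 5 μg alone or plus 0.256 μmol compound in 5% α-cyclodextrin saline (Addavax™ as positive control), boosted at 2 weeks. Serum taken 2 weeks after boost; anti-OVA IgG1 and IgG2a quantified by OVA-coated ELISA against standard curves (OD 450 nm).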

[1] = conclusion from IgG1/IgG2a after secondary immunization
[2] = conclusion from IgG1/IgG2a after primary immunization

Q: `CCCCCCCCCCCCCCCCCCCCCC(=O)N[C@@H](CCCN)C(=O)NCCCCCCCCCCCC.Cl` [SZ165, N-[(1S)-4-amino-1-(dodecylcarbamoyl)butyl]docosanamide hydrochloride] was tested. Which adjuvant activity [1] did it give?
A: Its adjuvant activity is “have an adjuvant activity”.

Q: `CCCCCCCCCCCCNC(=O)[C@H](CCCNC(=N)N)NC(=O)OCCCCCCCCCCCC.Cl` [SZ187, dodecyl N-[(1S)-1-(dodecylcarbamoyl)-4-guanidino-butyl]carbamate hydrochloride] was tested. Which adjuvant activity [2] did it give?
A: The adjuvant activity was “have an adjuvant activity”.

Q: What about the adjuvant activity [1] of the same compound?
A: Its adjuvant activity is “have an adjuvant activity”.

Q: Which adjuvant activity [2] does the source give for `CCCCCCCCCCCCCCCCCCCCCC(=O)N[C@@H](CC(C)C)C(=O)NCCCCCCCC` [SZ198, N-[(1S)-3-methyl-1-(octylcarbamoyl)butyl]docosanamide] here?
A: The adjuvant activity was “have an adjuvant activity”.

Q: And the adjuvant activity [1]?
A: Its adjuvant activity is “have an adjuvant activity”.
